Experiments:
[1] = molecular target: Alpha-2A adrenergic receptor (Homo sapiens, UniProt P08913); experiment: Adrenoceptor reporter cell assay (ADRA2A); format: functional
[2] = molecular target: Alpha-2C adrenergic receptor (Homo sapiens, UniProt P18825); experiment: Adrenoceptor reporter cell assay (ADRA2C); format: functional
D(2) dopamine receptor [3] = molecular target: T1, D(2) dopamine receptor (Homo sapiens, UniProt P14416); experiment: Bayer Inhouse […] panel (DRD2)
[4] = molecular target: 5-hydroxytryptamine receptor 1B (Homo sapiens) (UniProt P28222); details: Compound concentration 10.0 uM
Chain of 5-hydroxytryptamine receptor 1B (Homo sapiens) (P28222 whole entry): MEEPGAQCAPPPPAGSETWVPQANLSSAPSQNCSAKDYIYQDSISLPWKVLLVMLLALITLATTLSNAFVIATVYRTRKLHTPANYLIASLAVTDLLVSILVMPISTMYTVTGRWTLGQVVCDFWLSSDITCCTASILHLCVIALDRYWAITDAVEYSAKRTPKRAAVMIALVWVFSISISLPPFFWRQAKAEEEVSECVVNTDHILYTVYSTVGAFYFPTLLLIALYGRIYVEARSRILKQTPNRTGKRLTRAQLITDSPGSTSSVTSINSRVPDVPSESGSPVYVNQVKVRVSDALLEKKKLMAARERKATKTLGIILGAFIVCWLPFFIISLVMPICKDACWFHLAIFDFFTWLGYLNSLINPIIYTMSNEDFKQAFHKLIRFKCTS

[5] = molecular target: 5-hydroxytryptamine receptor 1D (Homo sapiens) (UniProt P28221); details: Compound concentration 10.0 uM
Chain of 5-hydroxytryptamine receptor 1D (Homo sapiens) (P28221 whole entry): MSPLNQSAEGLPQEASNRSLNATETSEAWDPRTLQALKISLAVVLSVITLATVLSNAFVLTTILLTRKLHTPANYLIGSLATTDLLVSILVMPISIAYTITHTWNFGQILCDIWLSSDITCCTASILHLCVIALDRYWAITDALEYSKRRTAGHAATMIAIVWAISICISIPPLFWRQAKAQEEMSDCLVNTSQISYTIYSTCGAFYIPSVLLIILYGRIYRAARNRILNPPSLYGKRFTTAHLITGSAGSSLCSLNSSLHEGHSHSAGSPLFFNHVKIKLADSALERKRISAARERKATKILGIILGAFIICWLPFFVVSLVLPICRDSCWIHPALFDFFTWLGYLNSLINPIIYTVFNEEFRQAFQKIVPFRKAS

[6] = molecular target: 5-hydroxytryptamine receptor 2A (Homo sapiens) (UniProt P28223); details: Compound concentration 10.0 uM
Chain of 5-hydroxytryptamine receptor 2A (Homo sapiens) (P28223 whole entry): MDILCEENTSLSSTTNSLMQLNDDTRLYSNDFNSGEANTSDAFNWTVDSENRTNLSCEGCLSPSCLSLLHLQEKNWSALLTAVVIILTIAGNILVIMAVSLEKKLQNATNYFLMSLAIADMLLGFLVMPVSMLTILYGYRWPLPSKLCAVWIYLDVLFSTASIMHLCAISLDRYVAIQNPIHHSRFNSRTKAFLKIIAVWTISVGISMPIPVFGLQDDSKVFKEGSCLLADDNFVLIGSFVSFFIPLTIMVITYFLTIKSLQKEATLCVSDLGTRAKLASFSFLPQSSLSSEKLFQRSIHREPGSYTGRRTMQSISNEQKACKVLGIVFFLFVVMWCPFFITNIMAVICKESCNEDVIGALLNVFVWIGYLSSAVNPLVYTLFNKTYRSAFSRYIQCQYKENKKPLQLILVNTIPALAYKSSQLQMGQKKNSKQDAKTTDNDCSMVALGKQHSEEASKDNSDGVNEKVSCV

[7] = molecular target: T2, 5-hydroxytryptamine receptor 2C (Homo sapiens) (UniProt P28335); details: Compound concentration 10.0 uM
T2 sequence (whole entry): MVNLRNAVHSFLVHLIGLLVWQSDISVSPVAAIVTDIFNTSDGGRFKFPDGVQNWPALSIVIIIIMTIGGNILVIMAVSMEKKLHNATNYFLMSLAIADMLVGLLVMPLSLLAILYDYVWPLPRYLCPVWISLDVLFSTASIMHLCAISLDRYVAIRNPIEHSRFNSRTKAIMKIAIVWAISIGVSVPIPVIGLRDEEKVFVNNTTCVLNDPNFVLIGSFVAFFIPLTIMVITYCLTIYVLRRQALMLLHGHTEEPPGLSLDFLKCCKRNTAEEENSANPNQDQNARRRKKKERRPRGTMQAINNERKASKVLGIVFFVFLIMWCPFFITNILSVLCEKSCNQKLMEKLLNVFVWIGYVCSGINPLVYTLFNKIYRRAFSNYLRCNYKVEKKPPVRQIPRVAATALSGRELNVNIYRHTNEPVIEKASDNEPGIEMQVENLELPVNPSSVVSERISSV

D(2) dopamine receptor [8] = molecular target: T1, D(2) dopamine receptor; details: Compound concentration 10.0 uM
[9] = molecular target: D(3) dopamine receptor (Homo sapiens) (UniProt P35462); details: Compound concentration 10.0 uM
[10] = molecular target: D(4) dopamine receptor (Homo sapiens) (UniProt P21917); details: Compound concentration 10.0 uM
[11] = molecular target: Mu-type opioid receptor (Homo sapiens) (UniProt P35372); details: Compound concentration 10.0 uM
[12] = molecular target: Kappa-type opioid receptor (Homo sapiens) (UniProt P41145); details: Compound concentration 10.0 uM
Chain of Kappa-type opioid receptor (Homo sapiens) (P41145 whole entry): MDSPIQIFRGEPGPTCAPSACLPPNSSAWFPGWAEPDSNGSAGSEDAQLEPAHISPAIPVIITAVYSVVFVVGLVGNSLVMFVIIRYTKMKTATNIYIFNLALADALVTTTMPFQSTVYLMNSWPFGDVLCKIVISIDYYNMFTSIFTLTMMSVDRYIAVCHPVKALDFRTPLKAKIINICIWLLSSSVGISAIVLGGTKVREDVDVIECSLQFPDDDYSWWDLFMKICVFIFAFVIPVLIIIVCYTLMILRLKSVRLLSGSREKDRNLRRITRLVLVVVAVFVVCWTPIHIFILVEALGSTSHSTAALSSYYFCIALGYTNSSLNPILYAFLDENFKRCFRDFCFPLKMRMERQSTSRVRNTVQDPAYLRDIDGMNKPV

[13] = molecular target: Histamine H2 receptor (Homo sapiens) (UniProt P25021); details: Compound concentration 10.0 uM
Chain of Histamine H2 receptor (Homo sapiens) (P25021 whole entry): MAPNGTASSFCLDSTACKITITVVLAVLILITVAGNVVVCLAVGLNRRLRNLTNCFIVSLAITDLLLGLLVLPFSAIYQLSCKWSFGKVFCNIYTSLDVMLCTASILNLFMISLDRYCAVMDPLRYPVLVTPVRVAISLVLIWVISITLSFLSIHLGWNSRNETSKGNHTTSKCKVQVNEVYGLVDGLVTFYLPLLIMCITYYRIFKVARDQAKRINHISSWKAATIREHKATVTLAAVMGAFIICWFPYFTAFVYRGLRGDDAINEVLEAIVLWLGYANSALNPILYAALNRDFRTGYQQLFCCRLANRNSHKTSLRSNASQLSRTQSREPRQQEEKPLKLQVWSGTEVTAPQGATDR

[14] = molecular target: Histamine H3 receptor (Homo sapiens) (UniProt Q9Y5N1); details: Compound concentration 10.0 uM
Chain of Histamine H3 receptor (Homo sapiens) (Q9Y5N1 whole entry): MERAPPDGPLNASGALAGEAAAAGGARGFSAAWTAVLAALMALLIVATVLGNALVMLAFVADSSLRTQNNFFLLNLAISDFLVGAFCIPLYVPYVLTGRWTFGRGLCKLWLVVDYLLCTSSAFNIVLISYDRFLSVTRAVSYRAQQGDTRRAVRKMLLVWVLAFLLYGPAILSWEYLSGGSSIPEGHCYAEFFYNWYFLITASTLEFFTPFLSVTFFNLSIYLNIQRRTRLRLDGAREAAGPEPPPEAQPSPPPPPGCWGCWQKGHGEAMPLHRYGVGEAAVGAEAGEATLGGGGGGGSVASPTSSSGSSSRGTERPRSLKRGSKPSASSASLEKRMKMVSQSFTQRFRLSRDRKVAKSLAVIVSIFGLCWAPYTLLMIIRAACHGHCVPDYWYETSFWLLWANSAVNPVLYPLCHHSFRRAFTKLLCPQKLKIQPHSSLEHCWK

[15] = molecular target: Histamine H4 receptor (Homo sapiens) (UniProt Q9H3N8); details: Compound concentration 10.0 uM
[16] = molecular target: Alpha-1B adrenergic receptor (Homo sapiens) (UniProt P35368); details: Compound concentration 10.0 uM
Chain of Alpha-1B adrenergic receptor (Homo sapiens) (P35368 whole entry): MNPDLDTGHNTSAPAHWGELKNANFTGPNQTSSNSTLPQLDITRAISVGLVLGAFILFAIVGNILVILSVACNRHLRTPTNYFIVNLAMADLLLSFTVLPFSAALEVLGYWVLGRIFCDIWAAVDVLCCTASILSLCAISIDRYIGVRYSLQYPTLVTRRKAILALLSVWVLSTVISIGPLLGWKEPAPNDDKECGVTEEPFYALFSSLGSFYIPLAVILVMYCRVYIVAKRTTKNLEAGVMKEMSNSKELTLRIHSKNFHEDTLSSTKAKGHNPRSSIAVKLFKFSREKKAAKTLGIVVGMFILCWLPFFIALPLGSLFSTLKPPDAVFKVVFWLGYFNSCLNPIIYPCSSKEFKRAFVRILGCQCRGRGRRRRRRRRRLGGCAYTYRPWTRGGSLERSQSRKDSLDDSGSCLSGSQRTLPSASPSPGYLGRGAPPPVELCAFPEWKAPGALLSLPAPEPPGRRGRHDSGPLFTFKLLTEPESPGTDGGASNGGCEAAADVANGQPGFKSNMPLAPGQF

[17] = molecular target: Alpha-2A adrenergic receptor (Homo sapiens) (UniProt P08913); details: Compound concentration 10.0 uM
[18] = molecular target: Alpha-2C adrenergic receptor (Homo sapiens) (UniProt P18825); details: Compound concentration 10.0 uM
Chain of Alpha-2C adrenergic receptor (Homo sapiens) (P18825 whole entry): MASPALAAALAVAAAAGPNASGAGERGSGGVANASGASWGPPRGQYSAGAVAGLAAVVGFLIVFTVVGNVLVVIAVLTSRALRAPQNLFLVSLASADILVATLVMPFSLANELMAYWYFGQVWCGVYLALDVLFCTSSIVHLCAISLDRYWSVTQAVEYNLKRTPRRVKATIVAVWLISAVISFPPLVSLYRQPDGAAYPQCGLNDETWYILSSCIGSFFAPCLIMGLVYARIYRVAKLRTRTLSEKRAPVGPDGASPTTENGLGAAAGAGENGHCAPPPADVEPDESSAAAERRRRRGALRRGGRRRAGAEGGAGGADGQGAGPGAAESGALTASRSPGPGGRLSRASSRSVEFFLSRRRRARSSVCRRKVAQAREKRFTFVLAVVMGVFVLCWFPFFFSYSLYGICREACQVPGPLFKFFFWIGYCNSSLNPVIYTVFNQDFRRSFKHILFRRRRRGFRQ

[19] = molecular target: Beta-1 adrenergic receptor (Homo sapiens, UniProt P08588); details: Compound concentration 10.0 uM
[20] = molecular target: T3, Muscarinic acetylcholine receptor M2 (Homo sapiens) (UniProt P08172); details: Compound concentration 10.0 uM
T3 sequence (whole entry): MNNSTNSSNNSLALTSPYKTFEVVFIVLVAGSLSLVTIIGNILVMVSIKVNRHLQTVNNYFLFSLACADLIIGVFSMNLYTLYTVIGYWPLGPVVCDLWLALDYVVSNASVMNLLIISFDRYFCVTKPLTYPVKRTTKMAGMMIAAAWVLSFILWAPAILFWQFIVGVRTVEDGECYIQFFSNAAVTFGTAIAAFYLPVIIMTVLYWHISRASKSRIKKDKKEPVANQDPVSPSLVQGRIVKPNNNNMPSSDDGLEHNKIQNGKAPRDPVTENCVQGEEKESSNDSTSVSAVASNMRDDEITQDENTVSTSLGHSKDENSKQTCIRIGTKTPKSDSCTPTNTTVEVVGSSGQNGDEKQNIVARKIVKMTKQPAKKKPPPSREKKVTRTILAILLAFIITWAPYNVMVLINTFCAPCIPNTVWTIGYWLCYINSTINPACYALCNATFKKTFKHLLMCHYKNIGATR

[21] = molecular target: Muscarinic acetylcholine receptor M3 (Homo sapiens) (UniProt P20309); details: Compound concentration 10.0 uM
Chain of Muscarinic acetylcholine receptor M3 (Homo sapiens) (P20309 whole entry, looked up): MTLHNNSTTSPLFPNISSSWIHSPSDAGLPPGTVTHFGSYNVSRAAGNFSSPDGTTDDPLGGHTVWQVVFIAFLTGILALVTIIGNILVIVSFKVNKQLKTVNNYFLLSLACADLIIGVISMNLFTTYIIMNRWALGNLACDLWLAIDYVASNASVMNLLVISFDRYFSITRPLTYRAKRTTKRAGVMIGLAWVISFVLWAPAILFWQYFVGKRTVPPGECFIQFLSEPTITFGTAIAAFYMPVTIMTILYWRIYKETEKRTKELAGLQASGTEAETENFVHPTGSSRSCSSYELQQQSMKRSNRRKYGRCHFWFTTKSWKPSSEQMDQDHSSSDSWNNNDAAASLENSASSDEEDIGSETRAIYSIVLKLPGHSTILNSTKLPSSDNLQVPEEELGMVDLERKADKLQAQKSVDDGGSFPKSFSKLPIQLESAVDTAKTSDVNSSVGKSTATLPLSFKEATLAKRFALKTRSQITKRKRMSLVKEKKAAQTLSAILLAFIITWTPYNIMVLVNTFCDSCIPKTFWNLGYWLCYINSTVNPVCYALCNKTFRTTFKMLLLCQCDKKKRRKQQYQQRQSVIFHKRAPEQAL

[22] = molecular target: T4, Muscarinic acetylcholine receptor M4 (Homo sapiens) (UniProt P08173); details: Compound concentration 10.0 uM
T4 sequence (whole entry): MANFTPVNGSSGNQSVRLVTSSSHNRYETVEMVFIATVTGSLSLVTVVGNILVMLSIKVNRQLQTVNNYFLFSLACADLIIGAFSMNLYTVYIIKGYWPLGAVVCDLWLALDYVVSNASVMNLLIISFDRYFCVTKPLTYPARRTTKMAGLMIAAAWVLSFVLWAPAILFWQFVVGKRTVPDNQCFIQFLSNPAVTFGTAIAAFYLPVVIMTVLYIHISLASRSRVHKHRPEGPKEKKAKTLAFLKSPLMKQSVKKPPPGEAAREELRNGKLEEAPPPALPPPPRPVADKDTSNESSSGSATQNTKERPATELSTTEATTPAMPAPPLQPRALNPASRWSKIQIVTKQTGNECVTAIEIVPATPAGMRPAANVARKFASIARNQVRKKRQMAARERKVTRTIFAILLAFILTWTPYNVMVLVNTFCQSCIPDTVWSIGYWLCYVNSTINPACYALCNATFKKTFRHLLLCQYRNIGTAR

[23] = molecular target: Muscarinic acetylcholine receptor M5 (Homo sapiens) (UniProt P08912); details: Compound concentration 10.0 uM
Chain of Muscarinic acetylcholine receptor M5 (Homo sapiens) (P08912 whole entry): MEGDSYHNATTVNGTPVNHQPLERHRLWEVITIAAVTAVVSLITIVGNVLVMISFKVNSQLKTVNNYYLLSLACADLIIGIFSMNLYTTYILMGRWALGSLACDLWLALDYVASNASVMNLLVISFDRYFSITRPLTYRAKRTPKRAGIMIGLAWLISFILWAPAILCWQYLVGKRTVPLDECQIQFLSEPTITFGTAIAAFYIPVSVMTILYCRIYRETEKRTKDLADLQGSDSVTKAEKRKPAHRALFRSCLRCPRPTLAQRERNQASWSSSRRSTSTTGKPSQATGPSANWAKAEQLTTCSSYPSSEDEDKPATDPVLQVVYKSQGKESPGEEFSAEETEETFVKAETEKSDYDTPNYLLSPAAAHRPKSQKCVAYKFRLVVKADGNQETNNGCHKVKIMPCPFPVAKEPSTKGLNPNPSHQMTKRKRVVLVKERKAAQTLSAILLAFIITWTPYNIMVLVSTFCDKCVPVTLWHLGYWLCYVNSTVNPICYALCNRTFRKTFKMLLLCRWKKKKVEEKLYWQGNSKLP

[24] = molecular target: GABA-A receptor; anion channel (Rattus norvegicus) (UniProt O09028+P15431+P18506+P18508+P19969+P20236+P23574+P23576+P28471+P28473+P30191+P62813+P63079+P63138+Q91ZM7+Q9ES14); details: Compound concentration 10.0 uM
[25] = molecular target: Alpha-1D adrenergic receptor (Homo sapiens) (UniProt P25100); details: Compound concentration 10.0 uM
[26] = molecular target: Sigma non-opioid intracellular receptor 1 (Homo sapiens) (UniProt Q99720); details: Compound concentration 10.0 uM

T1 sequence (P14416 whole entry): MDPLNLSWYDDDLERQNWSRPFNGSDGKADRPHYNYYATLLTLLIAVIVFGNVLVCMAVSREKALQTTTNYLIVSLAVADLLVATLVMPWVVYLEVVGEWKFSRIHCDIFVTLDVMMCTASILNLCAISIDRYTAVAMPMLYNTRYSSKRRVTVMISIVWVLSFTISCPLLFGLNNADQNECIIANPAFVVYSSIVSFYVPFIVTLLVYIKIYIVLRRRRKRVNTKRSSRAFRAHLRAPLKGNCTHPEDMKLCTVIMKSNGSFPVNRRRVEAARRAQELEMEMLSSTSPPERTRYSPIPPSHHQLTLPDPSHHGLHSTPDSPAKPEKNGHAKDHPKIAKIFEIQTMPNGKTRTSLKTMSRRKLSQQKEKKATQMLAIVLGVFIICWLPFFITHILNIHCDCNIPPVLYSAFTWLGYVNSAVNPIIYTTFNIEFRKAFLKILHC

Structure (SMILES)	IC50 [1]	IC50 [2]	IC50 (D(2) dopamine receptor [3])	inhibition [4]	inhibition [5]	inhibition [6]	inhibition [7]	inhibition (D(2) dopamine receptor [8])	inhibition [9]	inhibition [10]	inhibition [11]	inhibition [12]	inhibition [13]	inhibition [14]	inhibition [15]	inhibition [16]	inhibition [17]	inhibition [18]	inhibition [19]	inhibition [20]	further results
Cc1noc(C)c1-c1cnc2cc(C(=O)NCCC[n+]3ccc(N(C)C)cc3)ccn12	> 10 µM (not active)	> 10 µM (not active)	> 20 µM (not active)	-0.88%	24.2%	-4.21%	-5.48%	-1.11%	-6.53%	3.03%	18.9%	28.2%	9.52%	36%	15.9%	1.7%	16.1%	18.3%	3.84%	7.75%	inhibition [21]: 18%; inhibition [22]: 12.5%; inhibition [23]: -1.12%; inhibition [24]: -7.67%; inhibition [25]: 0.59%; inhibition [26]: 25.1%
CNc1cc[n+](CCNC(=O)c2ccn3c(-c4c(C)noc4C)cnc3c2)cc1	10 µM (not active)	> 11.8 µM (not active)	1.4 µM (not active)	9.81%	19.5%	17%	-3.48%	10.6%	8.88%	11.3%	6.53%	32.3%	5.19%	9.04%	3.02%	0.79%	49.5%	41.3%	2.87%	3.34%	inhibition [21]: 0.75%; inhibition [22]: -6.15%; inhibition [23]: -5%; inhibition [24]: 20.9%; inhibition [25]: 1.62%; inhibition [26]: 35.5%

Reference: ChEMBL document CHEMBL5463728, “Data for DCP probe BAY-6096” (2023)
